# Results taken from EP0743064A1, “Leukotriene antagonists for use in the treatment or prevention of alzheimer's disease” (ELI LILLY AND COMPANY, priority 1995, dated 1996).
# Where a name gives a salt, the structure may show the parent alone.
# Target: T1, binding of tritiated LTB4 to guinea pig lung membranes (Cavia porcellus, UniProt H0VYV8)
# T1 construct: contained 25 mg of guinea pig lung membrane protein; from tissue; host or cells: guinea pig lung membranes
# Assay: biochemical
# Description: The effectiveness of compounds of Formula I to inhibit the binding of tritiated LTB4 to guinea pig lung membranes was determined as follows.
# [^3H]-LTB4 Radioligand Binding Assay in Guinea Pig Lung Membranes
# The binding reaction was terminated by the addition of 1 mL ice cold wash buffer (25 mM Tris-HCl, pH 7.5) followed immediately by vacuum filtration over Whatman GF/C glass fiber filters using a Brandel (Gaithersburg, MD) 48 place harvester. The filters were washed three times with 1 mL of wash buffer. Retained radioactivity was determined by liquid scintillation counting at 50% counting efficiency using Ready Protein Plus cocktail (Beckman, Fullerton, CA). Nondisplaceable binding was determined in the presence of 1 mM LTB4 and was usually less than 10% of total binding. […] The data reported below is the mean -log Ki, otherwise known as the pKi, for n experiments.
# T1 sequence (H0VYV8 1-348): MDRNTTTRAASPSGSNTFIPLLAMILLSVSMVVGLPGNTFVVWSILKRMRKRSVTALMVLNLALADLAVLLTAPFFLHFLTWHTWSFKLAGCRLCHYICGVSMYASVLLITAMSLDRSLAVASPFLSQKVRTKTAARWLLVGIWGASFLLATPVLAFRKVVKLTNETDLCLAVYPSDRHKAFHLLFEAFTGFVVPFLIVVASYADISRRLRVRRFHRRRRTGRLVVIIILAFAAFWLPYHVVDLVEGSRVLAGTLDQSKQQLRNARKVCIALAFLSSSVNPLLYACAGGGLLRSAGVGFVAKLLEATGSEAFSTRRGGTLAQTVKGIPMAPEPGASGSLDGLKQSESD
row,Ki [nM],Structure (SMILES)
1,14.1,"CCCc1c(OCCCOc2cc(O)c(-c3ccccc3)cc2CC)cccc1Oc1ccccc1C(=O)O [Example 61, 2-[2-Propyl-3-[3-(2-ethyl-5-hydroxy-4-phenylphenoxy)-propoxy]phenoxy]benzoic acid sodium salt hemihydrate]"
2,6.31,"CCc1cc(-c2ccc(F)cc2)c(O)cc1OCCCCCC(c1ccccc1)c1nn[nH]n1 (centres unmarked) [Example 84, 1-Phenyl-1-(1H-tetrazol-5-yl)-6-(2-ethyl-4-(4-fluorophenyl)-5-hydroxyphenoxy)hexane]"
3,3.8,"CCc1cc(-c2ccc(F)cc2)c(O)cc1OCCCCCC(c1ccc(OCC(=O)N(C)C)cc1)c1nn[nH]n1 (centres unmarked) [Example 86, 1-(4-(Dimethylaminocarbonylmethoxy)phenyl)-1-(1H-tetrazol-5-yl)-6-(2-ethyl-4-(4-fluorophenyl)-5-hydroxyphenoxy)hexane]"
4,66.1,CCc1cc(-c2ccc(C(F)(F)F)cc2)c(O)cc1OCCCCCC(C)(C)c1nn[nH]n1 [disodium salt]
5,63.1,CCc1cc(-c2cccc(N(C)C)c2)c(O)cc1OCCCCCC(C)(C)c1nn[nH]n1 [disodium salt]
